By IC50 is commonly meant the concentration that gives 50% inhibition.

The record followed here is ChEMBL document CHEMBL5465560, “Selectivity Literature for EUbOPEN Chemogenomic Library” (2024).

The target of one assay is Aurora kinase B (Homo sapiens, UniProt Q96GD4). The experiment in a line: Selectivity interaction (KinomeScan (DiscoverX)) EUB0000607a AURKB. To be noted: at 10 µM.
Assay [1] concerns the target Calcium/calmodulin-dependent protein kinase type 1 (Homo sapiens) (UniProt Q14012). As to the kind of experiment: Selectivity interaction (KinomeScan (DiscoverX)) EUB0000607a CAMK1. The note with it: at 10 µM.
Assay [2] relates to Tyrosine-protein kinase ABL1 (Homo sapiens), P00519 [F317I]. The experiment in a line: Selectivity interaction (KinomeScan (DiscoverX)) EUB0000229b ABL1. To be noted: at 1 µM.
Chain of Tyrosine-protein kinase ABL1 (Homo sapiens), P00519 [F317I] (P00519 whole entry F317I): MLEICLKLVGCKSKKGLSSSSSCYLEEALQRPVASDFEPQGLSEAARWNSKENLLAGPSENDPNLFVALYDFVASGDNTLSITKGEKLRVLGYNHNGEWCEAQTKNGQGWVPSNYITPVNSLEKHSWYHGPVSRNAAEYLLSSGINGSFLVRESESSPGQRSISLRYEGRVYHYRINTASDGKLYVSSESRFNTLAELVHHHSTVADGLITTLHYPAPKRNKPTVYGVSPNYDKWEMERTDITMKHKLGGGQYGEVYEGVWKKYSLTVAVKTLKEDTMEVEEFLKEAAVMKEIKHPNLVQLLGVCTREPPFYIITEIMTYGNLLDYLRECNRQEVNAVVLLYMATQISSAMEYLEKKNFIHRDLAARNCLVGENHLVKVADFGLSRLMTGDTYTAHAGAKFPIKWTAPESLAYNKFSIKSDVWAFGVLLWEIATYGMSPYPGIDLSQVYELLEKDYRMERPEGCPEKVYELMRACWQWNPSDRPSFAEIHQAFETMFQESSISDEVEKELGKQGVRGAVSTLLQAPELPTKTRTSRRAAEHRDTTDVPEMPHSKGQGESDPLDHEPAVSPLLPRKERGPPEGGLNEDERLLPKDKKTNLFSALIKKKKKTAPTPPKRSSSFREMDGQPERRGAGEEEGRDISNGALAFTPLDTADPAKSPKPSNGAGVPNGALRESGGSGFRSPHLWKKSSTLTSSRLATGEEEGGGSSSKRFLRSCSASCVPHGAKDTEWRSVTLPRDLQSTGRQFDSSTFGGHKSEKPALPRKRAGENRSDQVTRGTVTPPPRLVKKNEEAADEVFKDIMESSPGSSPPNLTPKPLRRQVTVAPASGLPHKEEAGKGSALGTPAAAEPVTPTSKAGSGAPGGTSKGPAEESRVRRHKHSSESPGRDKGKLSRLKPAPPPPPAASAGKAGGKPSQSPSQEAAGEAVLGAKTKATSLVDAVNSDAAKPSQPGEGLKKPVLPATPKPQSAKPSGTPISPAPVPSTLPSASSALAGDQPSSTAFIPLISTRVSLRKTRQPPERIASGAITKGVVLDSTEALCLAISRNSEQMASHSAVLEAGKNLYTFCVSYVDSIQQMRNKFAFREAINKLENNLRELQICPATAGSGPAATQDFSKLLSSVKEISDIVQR
Assay [3] addresses T1, Serine/threonine-protein kinase Nek11 (Homo sapiens) (UniProt Q8NG66).
T1 sequence (whole entry): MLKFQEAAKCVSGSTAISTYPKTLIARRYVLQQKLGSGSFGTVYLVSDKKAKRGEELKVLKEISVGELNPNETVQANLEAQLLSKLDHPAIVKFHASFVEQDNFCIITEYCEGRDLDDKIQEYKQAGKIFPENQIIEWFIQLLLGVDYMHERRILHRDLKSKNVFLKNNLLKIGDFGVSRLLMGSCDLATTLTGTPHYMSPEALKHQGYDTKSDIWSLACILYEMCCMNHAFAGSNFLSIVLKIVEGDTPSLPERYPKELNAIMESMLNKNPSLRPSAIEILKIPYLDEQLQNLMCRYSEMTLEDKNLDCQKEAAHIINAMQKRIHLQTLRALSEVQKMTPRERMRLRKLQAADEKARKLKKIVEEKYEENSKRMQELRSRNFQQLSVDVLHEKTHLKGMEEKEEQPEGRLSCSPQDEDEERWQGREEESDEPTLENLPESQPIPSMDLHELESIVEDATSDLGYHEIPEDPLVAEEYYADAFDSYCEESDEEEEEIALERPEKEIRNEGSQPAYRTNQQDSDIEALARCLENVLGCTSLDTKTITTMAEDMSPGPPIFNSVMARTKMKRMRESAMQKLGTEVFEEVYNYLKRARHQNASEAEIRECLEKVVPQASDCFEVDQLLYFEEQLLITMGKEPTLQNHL
The experiment in a line: Selectivity interaction (KinomeScan (DiscoverX)) EUB0000229b NEK11. The note with it: at 10 µM.

Another assay concerns the target Adenosine receptor A3 (Homo sapiens, UniProt P0DMS8). The experiment in a line: Selectivity interaction (Adenosine 3 receptor binding assay, human recombinant ) EUB0000877a ADORA3.
In assay [4] the target is Mitogen-activated protein kinase kinase kinase 8 (Homo sapiens, UniProt P41279). As to the kind of experiment: Selectivity interaction (Kinase panel (33PanQinase(R) Activity Assay)) EUB0000877a MAP3K8.
The target of assay [5] is T2, Calcium/calmodulin-dependent protein kinase type IV (Homo sapiens) (UniProt Q16566).
T2 sequence (whole entry): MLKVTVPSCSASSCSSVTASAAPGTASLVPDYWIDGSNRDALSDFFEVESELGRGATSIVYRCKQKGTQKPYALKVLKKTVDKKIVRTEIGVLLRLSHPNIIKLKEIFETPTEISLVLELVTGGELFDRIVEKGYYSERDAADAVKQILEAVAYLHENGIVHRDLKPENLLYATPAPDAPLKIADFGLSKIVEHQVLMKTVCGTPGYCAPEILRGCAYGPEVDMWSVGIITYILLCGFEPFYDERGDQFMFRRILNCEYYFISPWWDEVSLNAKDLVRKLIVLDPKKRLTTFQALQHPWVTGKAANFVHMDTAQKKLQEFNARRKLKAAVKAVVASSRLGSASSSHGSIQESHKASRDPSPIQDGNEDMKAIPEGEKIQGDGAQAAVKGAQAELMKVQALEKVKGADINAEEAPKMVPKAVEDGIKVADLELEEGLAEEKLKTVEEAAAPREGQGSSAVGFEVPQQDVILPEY
The experiment in a line: Selectivity interaction (ActivX KiNativ screen (kinase selectivity in THP-1 cell lysates)) EUB0000639a CAMK4. In kind it is subcellular. To be noted: lysate.

The target in assay [6] is Dual specificity mitogen-activated protein kinase kinase 1 (Homo sapiens, UniProt Q02750). The experiment in a line: Selectivity interaction (Kinase panel (Invitrogen)) EUB0000639a MAP2K1. To be noted: at 200 nM.
Assay [7] addresses Hepatocyte growth factor receptor (Homo sapiens, UniProt P08581). As to the kind of experiment: Selectivity interaction (Kinase panel (Invitrogen)) EUB0000639a MET. The note with it: at 200 nM.
Assay [8] deals with Ribosomal protein S6 kinase alpha-1 (Homo sapiens, UniProt Q15418). The experiment in a line: Selectivity interaction (ActivX KiNativ screen (kinase selectivity in THP-1 cell lysates)) EUB0000639a RPS6KA1. In kind it is subcellular. To be noted: lysate.
Chain of Ribosomal protein S6 kinase alpha-1 (Q15418 whole entry): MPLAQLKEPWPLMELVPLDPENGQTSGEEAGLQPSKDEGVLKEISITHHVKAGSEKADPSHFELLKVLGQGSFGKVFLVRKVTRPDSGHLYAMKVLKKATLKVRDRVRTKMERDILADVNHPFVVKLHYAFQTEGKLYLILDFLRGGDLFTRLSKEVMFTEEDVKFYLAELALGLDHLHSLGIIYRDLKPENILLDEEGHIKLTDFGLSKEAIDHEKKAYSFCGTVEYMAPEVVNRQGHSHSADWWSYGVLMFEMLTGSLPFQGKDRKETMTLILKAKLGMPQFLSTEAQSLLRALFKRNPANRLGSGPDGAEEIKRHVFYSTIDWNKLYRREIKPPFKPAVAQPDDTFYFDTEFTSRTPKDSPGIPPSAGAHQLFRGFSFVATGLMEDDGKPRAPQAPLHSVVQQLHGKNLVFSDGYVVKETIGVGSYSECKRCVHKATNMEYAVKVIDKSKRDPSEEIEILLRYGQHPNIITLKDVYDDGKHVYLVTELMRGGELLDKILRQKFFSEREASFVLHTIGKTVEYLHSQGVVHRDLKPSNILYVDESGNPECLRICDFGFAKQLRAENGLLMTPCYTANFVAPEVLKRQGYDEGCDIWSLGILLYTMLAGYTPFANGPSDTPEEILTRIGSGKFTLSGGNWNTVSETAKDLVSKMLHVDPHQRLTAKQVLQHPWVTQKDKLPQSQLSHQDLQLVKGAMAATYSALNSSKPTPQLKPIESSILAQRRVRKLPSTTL
For assay [9], the target named is Protein kinase C alpha type (Homo sapiens, UniProt P17252). The experiment in a line: Selectivity interaction (Kinase screening (Upstate/Millipore)) EUB0000604a PRKCA.
For another assay, the target named is Focal adhesion kinase 1 (Homo sapiens, UniProt Q05397). As to the kind of experiment: Selectivity interaction (KinomeScan (DiscoverX)) EUB0000695a PTK2. To be noted: at 100 nM.
Chain of Focal adhesion kinase 1 (Q05397 2-1052 limits assumed): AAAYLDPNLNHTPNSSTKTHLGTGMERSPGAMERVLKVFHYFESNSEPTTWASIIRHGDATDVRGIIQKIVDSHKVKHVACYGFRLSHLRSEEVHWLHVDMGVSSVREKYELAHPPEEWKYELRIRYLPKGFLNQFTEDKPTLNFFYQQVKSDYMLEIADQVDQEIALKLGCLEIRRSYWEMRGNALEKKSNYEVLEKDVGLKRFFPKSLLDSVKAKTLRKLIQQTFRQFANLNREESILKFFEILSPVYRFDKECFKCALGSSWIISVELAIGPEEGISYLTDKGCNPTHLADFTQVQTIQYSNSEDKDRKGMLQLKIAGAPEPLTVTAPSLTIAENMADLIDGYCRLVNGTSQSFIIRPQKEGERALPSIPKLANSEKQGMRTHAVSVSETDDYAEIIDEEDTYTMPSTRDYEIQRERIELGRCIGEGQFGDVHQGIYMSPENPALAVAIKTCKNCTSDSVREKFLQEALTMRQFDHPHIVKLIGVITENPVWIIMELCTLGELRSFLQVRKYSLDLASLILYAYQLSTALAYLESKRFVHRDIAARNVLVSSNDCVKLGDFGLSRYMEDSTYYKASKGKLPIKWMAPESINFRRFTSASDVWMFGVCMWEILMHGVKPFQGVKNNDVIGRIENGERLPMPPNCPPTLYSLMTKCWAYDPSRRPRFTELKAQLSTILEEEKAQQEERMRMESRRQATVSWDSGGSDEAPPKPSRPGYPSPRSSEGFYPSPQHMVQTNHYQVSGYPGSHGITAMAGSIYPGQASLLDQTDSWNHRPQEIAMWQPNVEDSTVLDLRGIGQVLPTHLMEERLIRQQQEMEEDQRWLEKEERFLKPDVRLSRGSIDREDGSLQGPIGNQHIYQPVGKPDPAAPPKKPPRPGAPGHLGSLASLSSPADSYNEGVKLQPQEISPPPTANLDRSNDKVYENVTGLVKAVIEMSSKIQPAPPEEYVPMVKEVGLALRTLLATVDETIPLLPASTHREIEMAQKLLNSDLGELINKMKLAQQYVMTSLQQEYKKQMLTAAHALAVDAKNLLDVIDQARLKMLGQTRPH
Assay [10] concerns the target T3, Serine/threonine-protein kinase BRSK2 (Homo sapiens) (UniProt Q8IWQ3).
T3 sequence (whole entry): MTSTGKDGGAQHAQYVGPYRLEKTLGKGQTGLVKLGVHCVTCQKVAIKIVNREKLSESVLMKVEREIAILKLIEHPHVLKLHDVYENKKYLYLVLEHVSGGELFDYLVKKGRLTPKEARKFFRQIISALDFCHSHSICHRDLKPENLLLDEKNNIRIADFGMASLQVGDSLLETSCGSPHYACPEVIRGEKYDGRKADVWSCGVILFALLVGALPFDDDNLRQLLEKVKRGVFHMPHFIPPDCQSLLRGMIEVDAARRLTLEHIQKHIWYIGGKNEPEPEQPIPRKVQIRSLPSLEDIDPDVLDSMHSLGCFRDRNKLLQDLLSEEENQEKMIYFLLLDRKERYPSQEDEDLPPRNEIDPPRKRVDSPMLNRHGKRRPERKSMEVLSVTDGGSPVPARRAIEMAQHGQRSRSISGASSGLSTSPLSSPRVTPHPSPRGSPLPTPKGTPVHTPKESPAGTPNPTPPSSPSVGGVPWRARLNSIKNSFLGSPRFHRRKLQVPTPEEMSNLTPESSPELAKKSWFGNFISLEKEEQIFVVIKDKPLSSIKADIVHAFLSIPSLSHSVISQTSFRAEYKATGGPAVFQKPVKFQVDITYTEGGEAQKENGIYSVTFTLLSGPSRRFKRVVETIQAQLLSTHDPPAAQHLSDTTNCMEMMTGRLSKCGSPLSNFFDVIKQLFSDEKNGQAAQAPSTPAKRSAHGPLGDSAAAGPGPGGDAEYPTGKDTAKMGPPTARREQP
The experiment in a line: Selectivity interaction (ProQinase) EUB0000171b BRSK2.

Chain of Hepatocyte growth factor receptor (P08581 whole entry): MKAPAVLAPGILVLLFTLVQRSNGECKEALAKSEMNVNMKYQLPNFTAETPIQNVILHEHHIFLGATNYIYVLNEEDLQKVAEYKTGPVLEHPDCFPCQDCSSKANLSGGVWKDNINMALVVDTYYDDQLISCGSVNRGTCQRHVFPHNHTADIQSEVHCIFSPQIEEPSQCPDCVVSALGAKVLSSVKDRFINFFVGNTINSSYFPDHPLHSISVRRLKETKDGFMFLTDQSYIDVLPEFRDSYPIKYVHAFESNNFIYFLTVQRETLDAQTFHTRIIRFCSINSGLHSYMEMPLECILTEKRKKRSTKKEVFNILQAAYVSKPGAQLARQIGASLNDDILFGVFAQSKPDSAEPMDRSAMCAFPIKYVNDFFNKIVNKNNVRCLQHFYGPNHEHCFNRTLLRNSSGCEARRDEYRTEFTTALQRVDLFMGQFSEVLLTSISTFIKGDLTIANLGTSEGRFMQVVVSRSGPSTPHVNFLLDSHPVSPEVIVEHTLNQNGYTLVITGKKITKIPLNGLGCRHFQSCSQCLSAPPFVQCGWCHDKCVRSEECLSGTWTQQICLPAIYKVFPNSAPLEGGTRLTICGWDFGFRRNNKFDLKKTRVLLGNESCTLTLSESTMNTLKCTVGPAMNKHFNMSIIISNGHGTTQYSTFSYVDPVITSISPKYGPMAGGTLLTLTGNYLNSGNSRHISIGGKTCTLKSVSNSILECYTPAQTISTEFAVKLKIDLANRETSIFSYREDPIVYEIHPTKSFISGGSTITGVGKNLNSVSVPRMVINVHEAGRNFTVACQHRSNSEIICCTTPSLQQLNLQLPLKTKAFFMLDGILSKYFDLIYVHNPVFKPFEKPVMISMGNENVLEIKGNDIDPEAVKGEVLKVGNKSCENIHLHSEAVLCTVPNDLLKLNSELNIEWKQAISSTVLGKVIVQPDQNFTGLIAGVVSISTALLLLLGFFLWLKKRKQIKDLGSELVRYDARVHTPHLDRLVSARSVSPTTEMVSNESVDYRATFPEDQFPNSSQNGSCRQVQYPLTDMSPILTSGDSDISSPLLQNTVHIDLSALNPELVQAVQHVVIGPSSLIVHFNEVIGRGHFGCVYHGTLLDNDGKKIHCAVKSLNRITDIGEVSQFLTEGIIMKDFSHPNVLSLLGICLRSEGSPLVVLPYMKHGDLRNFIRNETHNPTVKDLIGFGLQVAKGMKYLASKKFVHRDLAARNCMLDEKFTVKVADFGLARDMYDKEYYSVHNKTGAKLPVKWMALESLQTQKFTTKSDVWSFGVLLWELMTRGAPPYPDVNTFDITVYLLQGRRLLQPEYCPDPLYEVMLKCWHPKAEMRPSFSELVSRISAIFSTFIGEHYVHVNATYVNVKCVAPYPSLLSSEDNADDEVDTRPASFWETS

On to `CNC(=O)Nc1ccc(-c2nc(N3CC4CCC(C3)O4)c3cnn(C4CCC5(CC4)OCCO5)c3n2)cc1`, for which the % of control is 92% at Aurora kinase B and 93% in [1].
As for `COc1cc(N(C)c2ccnc3ccc(C(F)(F)F)cc23)cc(OC)c1OC`, the % binding was 96% in [2] and 91% in [3].
Consider `CCC(=O)N1CC[C@H](Nc2ncnc3c2CN(c2cnc(OC)c(C(F)(F)F)c2)CC3)C1` [LENIOLISIB], for which the IC50 on Adenosine receptor A3 was greater than 30 µM; in assay [4], greater than 10 µM.
As to `CC[C@@H]1[C@H](F)C(=O)N[C@@H]1COc1nccc2cc(C(N)=O)c(OC)cc12` [ZIMLOVISERTIB], the % of inhibition in assay [5] (at 0.01 µM) was 25.8%; in [5] (at 0.04 µM), 19.1%; in [5] (at 0.2 µM), -4.7%; in [5] (at 1 µM), 11.2%; in [5] (at 5 µM) it was 18.6%; in [6], 24.2%. The % of inhibition in assay [7] came out at 2.16%; in assay [8] (at 0.01 µM), 18.6%; in assay [8] (at 0.04 µM), 18%; in assay [8] (at 0.2 µM) it was 14.6%; in [8] (at 1 µM), 14.7%; in assay [8] (at 5 µM), 7.3%.
Take `Cc1cnc(Nc2ccc(F)cc2Cl)nc1-c1c[nH]c(C(=O)N[C@H](CO)c2cccc(Cl)c2)c1`: in [9], the % of inhibition was 12%.
As to `Cc1cc(F)c(C(=O)Nc2cccc(-c3nncn3C(C)C)n2)cc1-n1cnc(C2CC2)c1`, the % of control at Focal adhesion kinase 1 was 100%.
`C=CC(=O)Nc1cccc(C(=O)Nc2ccc(Nc3cc(-c4[nH]c(SC)nc4C)ccn3)cc2)c1`: the values for the % of control in assay [10] (at 1 µM) and in assay [10] (at 5 µM) were 103% and 85%, respectively.
